In PubChem BioAssay (NCI):
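Growth conditions: 96-well plates. Treatment: test compound, 48 hours, 5 concentrations. Analysis: linear interpolation between bracketing concentrations; unreached endpoints set to highest concentration. The concentration for 50% growth inhibition is given as GI50. TGI denotes the concentration required for complete inhibition of growth.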

Key:
Experiment in all cases: NCI anticancer screen, dose series, 48 h
SK-MEL-5 melanoma = test system: SK-MEL-5 melanoma
HOP-62 NSCLC = test system: HOP-62 NSCLC
SW-620 colon = test system: SW-620 colon
SNB-75 CNS = test system: SNB-75 CNS
SNB-19 CNS = test system: SNB-19 CNS
SK-MEL-2 melanoma = test system: SK-MEL-2 melanoma
SF-539 CNS = test system: SF-539 CNS
HL-60(TB) leukemia = test system: HL-60(TB) leukemia
UACC-62 melanoma = test system: UACC-62 melanoma
MOLT-4 leukemia = test system: MOLT-4 leukemia
K-562 leukemia = test system: K-562 leukemia
HOP-92 NSCLC = test system: HOP-92 NSCLC
UO-31 renal = test system: UO-31 renal
SR leukemia = test system: SR leukemia
BT-549 breast = test system: BT-549 breast
786-0 renal = test system: 786-0 renal
RXF 393 renal = test system: RXF 393 renal
HS 578T breast = test system: HS 578T breast
HCT-15 colon = test system: HCT-15 colon
OVCAR-3 ovarian = test system: OVCAR-3 ovarian
IGROV1 ovarian = test system: IGROV1 ovarian
OVCAR-5 ovarian = test system: OVCAR-5 ovarian
MCF7 breast = test system: MCF7 breast
NCI/ADR-RES ovarian = test system: NCI/ADR-RES ovarian
NCI-H460 lung = test system: NCI-H460 lung
A549 NSCLC = test system: A549 NSCLC
M14 melanoma = test system: M14 melanoma
SF-268 CNS = test system: SF-268 CNS
DU-145 prostate = test system: DU-145 prostate
TK-10 renal = test system: TK-10 renal
SK-MEL-28 melanoma = test system: SK-MEL-28 melanoma
CCRF-CEM leukemia = test system: CCRF-CEM leukemia
PC-3 prostate = test system: PC-3 prostate
T-47D breast = test system: T-47D breast
OVCAR-4 ovarian = test system: OVCAR-4 ovarian
MDA-MB-231 breast = test system: MDA-MB-231 breast
OVCAR-8 ovarian = test system: OVCAR-8 ovarian
RPMI-8226 leukemia = test system: RPMI-8226 leukemia
ACHN renal = test system: ACHN renal
UACC-257 melanoma = test system: UACC-257 melanoma
HCC-2998 colon = test system: HCC-2998 colon
HCT-116 colon = test system: HCT-116 colon
EKVX NSCLC = test system: EKVX NSCLC
NCI-H226 lung = test system: NCI-H226 lung
CAKI-1 renal = test system: CAKI-1 renal
NCI-H522 lung = test system: NCI-H522 lung
A498 renal = test system: A498 renal
COLO 205 colon = test system: COLO 205 colon
SF-295 CNS = test system: SF-295 CNS
KM12 colon = test system: KM12 colon
SN12C renal = test system: SN12C renal
LOX IMVI melanoma = test system: LOX IMVI melanoma
HT29 colon = test system: HT29 colon
U251 CNS = test system: U251 CNS
MALME-3M melanoma = test system: MALME-3M melanoma
SK-OV-3 ovarian = test system: SK-OV-3 ovarian

Question: Which results are given for `COc1ccc(-c2nc(C(Cl)Cl)nc3cc(-c4ccccc4)nn23)cc1`?
Answer: GI50 (SK-MEL-5 melanoma): > 100000 nM; TGI (SK-MEL-5 melanoma): > 100000 nM; GI50 (HOP-62 NSCLC): 2660 nM; TGI (HOP-62 NSCLC): > 100000 nM; GI50 (SW-620 colon): 1960 nM; TGI (SW-620 colon): > 100000 nM; GI50 (SNB-75 CNS): > 100000 nM; TGI (SNB-75 CNS): > 100000 nM; GI50 (SNB-19 CNS): 2810 nM; TGI (SNB-19 CNS): > 100000 nM; GI50 (SK-MEL-2 melanoma): > 100000 nM; TGI (SK-MEL-2 melanoma): > 100000 nM; GI50 (SF-539 CNS): 72800 nM; TGI (SF-539 CNS): > 100000 nM; GI50 (HL-60(TB) leukemia): 1600 nM; TGI (HL-60(TB) leukemia): > 100000 nM; GI50 (UACC-62 melanoma): > 100000 nM; TGI (UACC-62 melanoma): > 100000 nM; GI50 (MOLT-4 leukemia): 2750 nM; TGI (MOLT-4 leukemia): > 100000 nM; GI50 (K-562 leukemia): 3060 nM; TGI (K-562 leukemia): > 100000 nM; GI50 (HOP-92 NSCLC): 3090 nM; TGI (HOP-92 NSCLC): > 100000 nM; GI50 (UO-31 renal): > 100000 nM; TGI (UO-31 renal): > 100000 nM; GI50 (SR leukemia): 1870 nM; TGI (SR leukemia): > 100000 nM; GI50 (BT-549 breast): 1920 nM; TGI (BT-549 breast): 5780 nM; GI50 (786-0 renal): 10700 nM; TGI (786-0 renal): 26900 nM; GI50 (RXF 393 renal): 1630 nM; TGI (RXF 393 renal): 3140 nM

Question: Which results are given for `CCOC(=O)Nc1cccc(-n2cnc3cc(-c4ccc(O)cc4)ccc32)c1`?
Answer: GI50 (HS 578T breast): 317 nM; TGI (HS 578T breast): > 30700 nM; GI50 (HCT-15 colon): 44.7 nM; TGI (HCT-15 colon): > 37800 nM; GI50 (SK-MEL-5 melanoma): 167 nM; TGI (SK-MEL-5 melanoma): 2370 nM; GI50 (HOP-62 NSCLC): 770 nM; TGI (HOP-62 NSCLC): > 59800 nM; GI50 (OVCAR-3 ovarian): 56.2 nM; TGI (OVCAR-3 ovarian): 2170 nM; GI50 (IGROV1 ovarian): 561 nM; TGI (IGROV1 ovarian): > 46500 nM; GI50 (OVCAR-5 ovarian): 600 nM; TGI (OVCAR-5 ovarian): > 75100 nM; GI50 (MCF7 breast): 141 nM; TGI (MCF7 breast): > 35700 nM; GI50 (SW-620 colon): 64.7 nM; TGI (SW-620 colon): > 47400 nM; GI50 (NCI/ADR-RES ovarian): 84.9 nM; TGI (NCI/ADR-RES ovarian): 25400 nM; GI50 (NCI-H460 lung): 192 nM; TGI (NCI-H460 lung): > 34200 nM; GI50 (SNB-75 CNS): 48.6 nM; TGI (SNB-75 CNS): > 41100 nM; GI50 (A549 NSCLC): 380 nM; TGI (A549 NSCLC): > 45600 nM; GI50 (M14 melanoma): 63.4 nM; TGI (M14 melanoma): > 37800 nM; GI50 (SF-268 CNS): 2190 nM; TGI (SF-268 CNS): > 71600 nM; GI50 (DU-145 prostate): 391 nM; TGI (DU-145 prostate): > 45300 nM; GI50 (SNB-19 CNS): 313 nM; TGI (SNB-19 CNS): > 100000 nM; GI50 (SK-MEL-2 melanoma): 204 nM; TGI (SK-MEL-2 melanoma): > 43800 nM; GI50 (SF-539 CNS): 182 nM; TGI (SF-539 CNS): 15000 nM; GI50 (HL-60(TB) leukemia): 36 nM; TGI (HL-60(TB) leukemia): 1210 nM; GI50 (TK-10 renal): 1470 nM; TGI (TK-10 renal): > 64800 nM; GI50 (SK-MEL-28 melanoma): 1620 nM; TGI (SK-MEL-28 melanoma): > 45900 nM; GI50 (CCRF-CEM leukemia): 144 nM; TGI (CCRF-CEM leukemia): > 100000 nM; GI50 (PC-3 prostate): 145 nM; TGI (PC-3 prostate): > 100000 nM; GI50 (UACC-62 melanoma): 367 nM; TGI (UACC-62 melanoma): > 36900 nM; GI50 (T-47D breast): 940 nM; TGI (T-47D breast): > 29300 nM; GI50 (OVCAR-4 ovarian): 1580 nM; TGI (OVCAR-4 ovarian): > 55800 nM; GI50 (MDA-MB-231 breast): 267 nM; TGI (MDA-MB-231 breast): > 67400 nM; GI50 (OVCAR-8 ovarian): 302 nM; TGI (OVCAR-8 ovarian): > 33700 nM; GI50 (RPMI-8226 leukemia): 342 nM; TGI (RPMI-8226 leukemia): 3780 nM; GI50 (ACHN renal): 260 nM; TGI (ACHN renal): > 67400 nM; GI50 (UACC-257 melanoma): 1270 nM; TGI (UACC-257 melanoma): > 42500 nM; GI50 (HCC-2998 colon): 310 nM; TGI (HCC-2998 colon): > 66700 nM; GI50 (HCT-116 colon): 141 nM; TGI (HCT-116 colon): > 46200 nM; GI50 (EKVX NSCLC): 885 nM; TGI (EKVX NSCLC): > 47800 nM; GI50 (MOLT-4 leukemia): 114 nM; TGI (MOLT-4 leukemia): 37200 nM; GI50 (NCI-H226 lung): 1260 nM; TGI (NCI-H226 lung): 6770 nM; GI50 (CAKI-1 renal): 343 nM; TGI (CAKI-1 renal): > 76800 nM; GI50 (K-562 leukemia): 42.6 nM; TGI (K-562 leukemia): > 100000 nM; GI50 (NCI-H522 lung): 56.1 nM; TGI (NCI-H522 lung): 333 nM; GI50 (HOP-92 NSCLC): 1450 nM; TGI (HOP-92 NSCLC): 13600 nM; GI50 (UO-31 renal): 388 nM; TGI (UO-31 renal): > 36900 nM; GI50 (A498 renal): 697 nM; TGI (A498 renal): 4530 nM; GI50 (SR leukemia): 32 nM; TGI (SR leukemia): > 45200 nM; GI50 (COLO 205 colon): 232 nM; TGI (COLO 205 colon): > 34600 nM; GI50 (SF-295 CNS): 102 nM; TGI (SF-295 CNS): > 100000 nM; GI50 (KM12 colon): 283 nM; TGI (KM12 colon): 6020 nM; GI50 (SN12C renal): 498 nM; TGI (SN12C renal): > 55000 nM; GI50 (LOX IMVI melanoma): 245 nM; TGI (LOX IMVI melanoma): > 39900 nM; GI50 (HT29 colon): 143 nM; TGI (HT29 colon): 1100 nM; GI50 (BT-549 breast): 132 nM; TGI (BT-549 breast): 4400 nM; GI50 (786-0 renal): 719 nM; TGI (786-0 renal): > 54800 nM; GI50 (U251 CNS): 158 nM; TGI (U251 CNS): > 47100 nM; GI50 (RXF 393 renal): 157 nM; TGI (RXF 393 renal): 681 nM; GI50 (MALME-3M melanoma): 774 nM; TGI (MALME-3M melanoma): > 48800 nM; GI50 (SK-OV-3 ovarian): 618 nM; TGI (SK-OV-3 ovarian): > 72000 nM
